{
  "source": "patent US9988400B2",
  "about": "(Genentech, Inc., priority 2013, dated 2018)",
  "note": "pEC50: −log10 of the molar value.",
  "data": [
    {"target": "T1, HEK cells stably transfected with tetracycline inducible hNR1 and hNR2A (Homo sapiens, UniProt Q05586+Q12879)", "T1 construct": "expressed in transfected cells; host or cells: HEK cells, stably transfected, tetracycline/doxycycline inducible", "T1 sequence (Q12879 23-1464, other chains not shown)": "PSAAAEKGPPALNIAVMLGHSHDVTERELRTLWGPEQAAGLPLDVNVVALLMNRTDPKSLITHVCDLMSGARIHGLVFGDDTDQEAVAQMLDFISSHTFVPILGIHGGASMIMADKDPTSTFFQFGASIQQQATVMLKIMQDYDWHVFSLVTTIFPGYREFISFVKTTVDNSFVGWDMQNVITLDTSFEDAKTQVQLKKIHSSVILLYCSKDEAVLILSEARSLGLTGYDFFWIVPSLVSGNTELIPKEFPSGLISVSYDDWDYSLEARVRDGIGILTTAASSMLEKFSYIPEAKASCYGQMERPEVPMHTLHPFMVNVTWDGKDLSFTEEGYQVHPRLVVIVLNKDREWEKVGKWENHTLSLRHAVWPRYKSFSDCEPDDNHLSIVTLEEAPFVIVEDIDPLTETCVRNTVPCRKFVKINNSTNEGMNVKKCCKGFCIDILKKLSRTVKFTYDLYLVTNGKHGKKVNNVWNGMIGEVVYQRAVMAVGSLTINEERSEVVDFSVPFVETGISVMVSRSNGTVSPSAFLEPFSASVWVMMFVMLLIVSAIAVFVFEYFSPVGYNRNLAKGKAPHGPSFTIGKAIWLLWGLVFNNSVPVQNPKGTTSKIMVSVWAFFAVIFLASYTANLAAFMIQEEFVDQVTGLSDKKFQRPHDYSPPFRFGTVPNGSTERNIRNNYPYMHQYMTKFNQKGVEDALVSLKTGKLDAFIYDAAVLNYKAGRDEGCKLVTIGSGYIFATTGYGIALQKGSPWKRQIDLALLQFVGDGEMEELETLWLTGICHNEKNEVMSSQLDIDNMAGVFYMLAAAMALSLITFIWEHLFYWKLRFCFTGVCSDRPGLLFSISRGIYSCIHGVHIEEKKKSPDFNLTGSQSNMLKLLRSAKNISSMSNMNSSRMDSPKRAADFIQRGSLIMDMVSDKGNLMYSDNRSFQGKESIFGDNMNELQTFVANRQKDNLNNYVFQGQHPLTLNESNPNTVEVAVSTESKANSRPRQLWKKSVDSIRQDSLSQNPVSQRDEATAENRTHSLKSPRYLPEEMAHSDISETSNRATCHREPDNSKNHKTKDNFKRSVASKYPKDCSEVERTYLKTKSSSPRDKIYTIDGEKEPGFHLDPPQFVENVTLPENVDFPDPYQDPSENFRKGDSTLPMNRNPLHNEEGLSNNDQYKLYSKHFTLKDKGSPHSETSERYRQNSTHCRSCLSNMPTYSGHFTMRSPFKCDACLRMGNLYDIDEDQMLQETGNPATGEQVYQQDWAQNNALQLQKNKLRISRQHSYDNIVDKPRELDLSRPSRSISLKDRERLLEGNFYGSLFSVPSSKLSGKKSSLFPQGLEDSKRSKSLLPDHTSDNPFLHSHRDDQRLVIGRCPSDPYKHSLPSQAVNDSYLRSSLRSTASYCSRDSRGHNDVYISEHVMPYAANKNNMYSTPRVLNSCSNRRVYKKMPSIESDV", "assay": "Assay 1: Cell-Based Assay, cytosolic calcium response to positive allosteric modulators (with 30 μM glycine and 300 nM L-glutamate, EC30)", "conditions": "Table 2; cytosolic calcium response, with 30 μM glycine and 300 nM L-glutamate (EC30); — = no plateau was reached", "how_it_was_run": "(§1)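 Cells induced 24 h with 7.5 μg mL^−1 doxycycline plus 500 μM (+)-ketamine, loaded 60 min at 37 °C with calcium dye in Mg-free HBSS (1.8 mM Ca, probenecid, 10 μM (+)-ketamine, pH 7.15). Peak RFU over 5 min after compound addition, scaled to 100 μM L-glutamate (100%) and 0 μM (0%); four-parameter Hill fit for EC50, max % if no plateau.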", "values": [
      {"smiles": "O=c1cc(Cn2nc(C(F)(F)F)cc2C2CC2)nc2sc3c(n12)CCC3", "note": "[Example 27.5, 10-{[5-cyclopropyl-3-(trifluoromethyl)-1H-pyrazol-1-yl]methyl}-7-thia-1,9-diazatricyclo[6.4.0.0^{2,6}]dodeca-2(6),8,10-trien-12-one]", "pEC50": 4.52},
      {"smiles": "CC1(C)CCc2sc3nc(Cn4nc(C(F)(F)F)cc4C4CC4)cc(=O)n3c21", "note": "[Example 27.7, 10-{[5-cyclopropyl-3-(trifluoromethyl)-1H-pyrazol-1-yl]methyl}-3,3-dimethyl-7-thia-1,9-diazatricyclo[6.4.0.0^{2,6}]dodeca-2(6),8,10-trien-12-one]", "pEC50": 4.58},
      {"smiles": "CC1(C)CCc2sc3nc(Cn4nc(C5CC5)cc4C(F)(F)F)cc(=O)n3c21", "note": "[Example 27.8, 10-{[3-cyclopropyl-5-(trifluoromethyl)-1H-pyrazol-1-yl]methyl}-3,3-dimethyl-7-thia-1,9-diazatricyclo[6.4.0.0^{2,6}]dodeca-2(6),8,10-trien-12-one]", "pEC50": 4.52},
      {"smiles": "CC(=O)c1c(C)sc2nc(Cc3cccc(C#N)c3F)cc(=O)n12", "note": "[Example 27.10, 3-((3-acetyl-2-methyl-5-oxo-5H-thiazolo[3,2-a]pyrimidin-7-yl)methyl)-2-fluorobenzonitrile]", "pEC50": 4.54},
      {"smiles": "Cc1sc2nc(Cc3cccc(C(F)(F)F)c3F)cc(=O)n2c1CO", "note": "[Example 27.14, 7-(2-fluoro-3-(trifluoromethyl)benzyl)-3-(hydroxymethyl)-2-methyl-5H-thiazolo[3,2-a]pyrimidin-5-one]", "pEC50": 4.35}
    ]},
    {"target": "T1, HEK cells stably transfected with tetracycline inducible hNR1 and hNR2A", "assay": "Assay 1: Cell-Based Assay, cytosolic calcium response to positive allosteric modulators (with 30 μM glycine and 300 nM L-glutamate, EC30)", "conditions": "Table 3; cytosolic calcium response, with 30 μM glycine and 300 nM L-glutamate (EC30); — = no plateau was reached", "how_it_was_run": "as §1", "values": [
      {"smiles": "Cc1sc2nc(Cn3nc(C(F)(F)F)cc3Cl)cc(=O)n2c1C(C)C#N", "note": "(stereo not shown) [Example 251A]", "pEC50": 5.58},
      {"smiles": "CNC(=O)c1c(C)sc2nc(Cc3cccc(C4CC4)c3F)cc(=O)n12", "note": "[compound 1, 7-[(3-cyclopropyl-2-fluoro-phenyl)methyl]-N,2-dimethyl-5-oxo-thiazolo[3,2-a]pyrimidine-3-carboxamide]", "pEC50": 6.03},
      {"smiles": "CCNC(=O)c1c(C)sc2nc(Cc3c(F)ccc(F)c3F)cc(=O)n12", "note": "[compound 2, N-ethyl-2-methyl-5-oxo-7-[(2,3,6-trifluorophenyl)methyl]thiazolo[3,2-a]pyrimidine-3-carboxamide]", "pEC50": 4.47},
      {"smiles": "Cc1sc2nc(Cc3cccc(C#N)c3F)cc(=O)n2c1-c1ncco1", "note": "[compound 3, 2-fluoro-3-[(2-methyl-3-oxazol-2-yl-5-oxo-thiazolo[3,2-a]pyrimidin-7-yl)methyl]benzonitrile]", "pEC50": 4.96},
      {"smiles": "CCNC(=O)c1c(C)sc2nc(Cc3cc(C#N)cc(C4CC4)c3F)cc(=O)n12", "note": "[compound 4, 7-[(5-cyano-3-cyclopropyl-2-fluoro-phenyl)methyl]-N-ethyl-2-methyl-5-oxo-thiazolo[3,2-a]pyrimidine-3-carboxamide]", "pEC50": 5.41},
      {"smiles": "CCNC(=O)c1c(C)sc2nc(Cc3cccc(OC)c3F)cc(=O)n12", "note": "[compound 5, N-ethyl-7-[(2-fluoro-3-methoxy-phenyl)methyl]-2-methyl-5-oxo-thiazolo[3,2-a]pyrimidine-3-carboxamide]", "pEC50": 4.82},
      {"smiles": "CNC(=O)c1c(C)sc2nc(Cc3cccc(C4CC4)c3F)c(F)c(=O)n12", "note": "[compound 6, 7-[(3-cyclopropyl-2-fluoro-phenyl)methyl]-6-fluoro-N,2-dimethyl-5-oxo-thiazolo[3,2-a]pyrimidine-3-carboxamide]", "pEC50": 6.12},
      {"smiles": "CNC(=O)Cc1c(C)sc2nc(Cc3cccc(Cl)c3F)cc(=O)n12", "note": "[compound 7, 2-[7-[(3-chloro-2-fluoro-phenyl)methyl]-2-methyl-5-oxo-thiazolo[3,2-a]pyrimidin-3-yl]-N-methyl-acetamide]", "pEC50": 5.01},
      {"smiles": "CCNC(=O)c1c(C)sc2nc(Cc3cccc(Cl)c3F)c(F)c(=O)n12", "note": "[compound 8, 7-[(3-chloro-2-fluoro-phenyl)methyl]-N-ethyl-6-fluoro-2-methyl-5-oxo-thiazolo[3,2-a]pyrimidine-3-carboxamide]", "pEC50": 5.59},
      {"smiles": "CNC(=O)c1c(C)sc2nc(Cc3cc(F)c(F)cc3OC)cc(=O)n12", "note": "[compound 9, 7-[(4,5-difluoro-2-methoxy-phenyl)methyl]-N,2-dimethyl-5-oxo-thiazolo[3,2-a]pyrimidine-3-carboxamide]", "pEC50": 5.09},
      {"smiles": "Cc1sc2nc(Cc3cccc(C#N)c3F)cc(=O)n2c1C1CC1C", "note": "(stereo not shown) [compound 10, 2-fluoro-3-[[2-methyl-3-(2-methylcyclopropyl)-5-oxo-thiazolo[3,2-a]pyrimidin-7-yl]methyl]benzonitrile]", "pEC50": 6.33},
      {"smiles": "CNC(=O)Cc1c(C)sc2nc(Cc3cccc(C4CC4)c3F)cc(=O)n12", "note": "[compound 11, 2-[7-[(3-cyclopropyl-2-fluoro-phenyl)methyl]-2-methyl-5-oxo-thiazolo[3,2-a]pyrimidin-3-yl]-N-methyl-acetamide]", "pEC50": 5.94},
      {"smiles": "Cc1sc2nc(Oc3cccc(C(F)(F)F)c3)cc(=O)n2c1C1CC1CO", "note": "(stereo not shown) [compound 12, 3-[2-(Hydroxymethyl)cyclopropyl]-2-methyl-7-[3-(trifluoromethyl)phenoxy]thiazolo[3,2-a]pyrimidin-5-one]", "pEC50": 5.69},
      {"smiles": "CCNC(=O)c1c(C)sc2nc(Cc3cccc(C(F)(F)F)c3F)c(F)c(=O)n12", "note": "[compound 13, N-ethyl-6-fluoro-7-[[2-fluoro-3-(trifluoromethyl)phenyl]methyl]-2-methyl-5-oxo-thiazolo[3,2-a]pyrimidine-3-carboxamide]", "pEC50": 6.07},
      {"smiles": "CNC(=O)c1c(C)sc2nc(Cc3cc(C(F)(F)F)ccc3Cl)cc(=O)n12", "note": "[compound 14, 7-[[2-chloro-5-(trifluoromethyl)phenyl]methyl]-N,2-dimethyl-5-oxo-thiazolo[3,2-a]pyrimidine-3-carboxamide]", "pEC50": 5.81},
      {"smiles": "Cc1sc2nc(Cc3cccc(C#N)c3F)c(F)c(=O)n2c1C(=O)NCC(F)(F)F", "note": "[compound 15, 7-[(3-cyano-2-fluoro-phenyl)methyl]-6-fluoro-2-methyl-5-oxo-N-(2,2,2-trifluoroethyl)thiazolo[3,2-a]pyrimidine-3-carboxamide]", "pEC50": 5.04},
      {"smiles": "CNC(=O)c1c(C)sc2nc(Cc3cc(F)c(F)cc3Cl)cc(=O)n12", "note": "[compound 16, 7-[(2-chloro-4,5-difluoro-phenyl)methyl]-N,2-dimethyl-5-oxo-thiazolo[3,2-a]pyrimidine-3-carboxamide]", "pEC50": 4.81},
      {"smiles": "CCNC(=O)c1c(C)sc2nc(Cc3cc(F)c(F)cc3CCF)cc(=O)n12", "note": "[compound 17, 7-[[4,5-difluoro-2-(2-fluoroethyl)phenyl]methyl]-N-ethyl-2-methyl-5-oxo-thiazolo[3,2-a]pyrimidine-3-carboxamide]", "pEC50": 5.15},
      {"smiles": "CNC(=O)Cc1c(C)sc2nc(Cn3nc(C(F)(F)F)cc3C3CC3)cc(=O)n12", "note": "[compound 18, 2-[7-[[5-cyclopropyl-3-(trifluoromethyl)pyrazol-1-yl]methyl]-2-methyl-5-oxo-thiazolo[3,2-a]pyrimidin-3-yl]-N-methyl-acetamide]", "pEC50": 5.65},
      {"smiles": "CNC(=O)Cc1c(C)sc2nc(Cc3cccc(C(F)(F)F)c3F)cc(=O)n12", "note": "[compound 19, 2-[7-[[2-fluoro-3-(trifluoromethyl)phenyl]methyl]-2-methyl-5-oxo-thiazolo[3,2-a]pyrimidin-3-yl]-N-methyl-acetamide]", "pEC50": 5.26},
      {"smiles": "CCNC(=O)c1c(C)sc2nc(Cn3nc(C)cc3Cl)cc(=O)n12", "note": "[compound 20, 7-[(5-chloro-3-methyl-pyrazol-1-yl)methyl]-N-ethyl-2-methyl-5-oxo-thiazolo[3,2-a]pyrimidine-3-carboxamide]", "pEC50": 4.99},
      {"smiles": "CCNC(=O)c1c(C)sc2nc(Cn3nc(Cl)cc3C)cc(=O)n12", "note": "[compound 21, 7-[(3-chloro-5-methyl-pyrazol-1-yl)methyl]-N-ethyl-2-methyl-5-oxo-thiazolo[3,2-a]pyrimidine-3-carboxamide]", "pEC50": 5.10},
      {"smiles": "CCNC(=O)c1c(C)sc2nc(Cn3nc(Cl)cc3C3CC3)cc(=O)n12", "note": "[compound 22, 7-[(3-chloro-5-cyclopropyl-pyrazol-1-yl)methyl]-N-ethyl-2-methyl-5-oxo-thiazolo[3,2-a]pyrimidine-3-carboxamide]", "pEC50": 5.38},
      {"smiles": "CCNC(=O)c1c(C)sc2nc(Cn3nc(C4CC4)cc3Cl)cc(=O)n12", "note": "[compound 23, 7-[(5-chloro-3-cyclopropyl-pyrazol-1-yl)methyl]-N-ethyl-2-methyl-5-oxo-thiazolo[3,2-a]pyrimidine-3-carboxamide]", "pEC50": 5.46},
      {"smiles": "Cc1sc2nc(Cc3nc(C(F)(F)F)cs3)cc(=O)n2c1C1CC1CO", "note": "(stereo not shown) [compound 24, 3-[2-(Hydroxymethyl)cyclopropyl]-2-methyl-7-[[4-(trifluoromethyl)thiazol-2-yl]methyl]thiazolo[3,2-a]pyrimidin-5-one]", "pEC50": 5.88},
      {"smiles": "CCN(Cc1cc(=O)n2c(CC(=O)NC)c(C)sc2n1)c1ccc(F)cc1", "note": "[compound 25, 2-[7-[(N-ethyl-4-fluoro-anilino)methyl]-2-methyl-5-oxo-thiazolo[3,2-a]pyrimidin-3-yl]-N-methyl-acetamide]", "pEC50": 6.53},
      {"smiles": "CCNC(=O)c1c(C)sc2nc(Cn3nc(C(F)(F)F)cc3C)cc(=O)n12", "note": "[compound 26, N-ethyl-2-methyl-7-[[5-methyl-3-(trifluoromethyl)pyrazol-1-yl]methyl]-5-oxo-thiazolo[3,2-a]pyrimidine-3-carboxamide]", "pEC50": 5.32},
      {"smiles": "CCNC(=O)c1c(C)sc2nc(Cn3nc(C)cc3C(F)(F)F)cc(=O)n12", "note": "[compound 27, N-ethyl-2-methyl-7-[[3-methyl-5-(trifluoromethyl)pyrazol-1-yl]methyl]-5-oxo-thiazolo[3,2-a]pyrimidine-3-carboxamide]", "pEC50": 4.97},
      {"smiles": "CCNC(=O)c1c(C)sc2nc(Cn3nc(C(F)(F)F)cc3Cl)cc(=O)n12", "note": "[compound 28, 7-[[5-Chloro-3-(trifluoromethyl)-1H-pyrazol-1-yl]methyl]-N-ethyl-2-methyl-5-oxo-5H-[1,3]thiazolo[3,2-a]pyrimidine-3-carboxamide]", "pEC50": 6.41}
    ]}
  ]
}
